According to patent publication US7018987B1 (priority 1998, dated 2006):
Converted amounts (≈) assume the structure as drawn. Read-outs that look alike come from different tables or passages of the source.

Legend:
Neisseria gonorrhoeae = format: cell-based
FADU = format: cell-based, Human
SW1736 = format: cell-based, Human
[1] = test system: eight bacteria and two fungi tested; experiment: Disk susceptibility testing, whole microbe panel; format: cell-based; details: disk susceptibility, bacteria and fungi tested
Cryptococcus neoformans = experiment: Disk susceptibility testing, Cryptococcus neoformans; format: cell-based
NCI-H460 = format: cell-based, Human
[2] = test system: P388 lymphocytic leukemia; format: cell-based, Murine
SK-Mel-3 = format: cell-based, Human
SK-N-SH = format: cell-based, Human
Candida albicans = experiment: Disk susceptibility testing, Candida albicans; format: cell-based
BXPC-3 = format: cell-based, Human
DU-145 = format: cell-based, Human
Solubility in water = details: mg per 1 ml water at 25° C.
Micrococcus luteus = experiment: Disk susceptibility testing, Micrococcus luteus; format: cell-based
Escherichia coli = details: disk susceptibility
Staphylococcus aureus = details: disk susceptibility
Streptococcus pneumoniae = details: disk susceptibility
[3] = test system: Stenotrophomonas maltophilia; details: disk susceptibility
Enterobacter cloacae = details: disk susceptibility
Enterococcus faecalis = details: disk susceptibility
full-panel NCl screen = details: read-out: mean panel GI50 concentration; cited from earlier work
tubulin = details: reported (Lin et al., 1988); cited from earlier work
[4] = Neisseria gonorrhoeae, disk susceptibility
[5] = murine P-388 leukemia, 48 hours

Manganese combretastatin A-4 3′-O-phosphate [Compound 5e]
Minimum inhibitory amount per disk (Neisseria gonorrhoeae; [4]): 6.25–12.5 μg/disk | GI50 Pharynx FADU (FADU; FADU, 48 hours): 0.00091 µg/mL | GI50 Thyroid SW1736 (SW1736; SW1736, 48 hours): 14.7 µg/mL | antimicrobial growth inhibition (in words) [1]: inhibitory to opportunistic fungi | Minimum inhibitory concentration (Cryptococcus neoformans): 12.5–25 μg/disk | GI50 Lung-NSC NCI-H460 (NCI-H460; NCI-H460, 48 hours): 0.0015 µg/mL | ED50 P-388 [2, 5]: 0.016 µg/mL | GI50 Melanoma SK-Mel-3 (SK-Mel-3; SK-Mel-3, 48 hours): 0.0036 µg/mL | GI50 Neuroblast SK-N-SH (SK-N-SH; SK-N-SH, 48 hours): 0.014 µg/mL | Minimum inhibitory concentration (Candida albicans): 25–50 μg/disk | GI50 Pancreas BXPC-3 (BXPC-3; BXPC-3, 48 hours): 0.20 µg/mL | GI50 Prostate DU-145 (DU-145; DU-145, 48 hours): <0.001 µg/mL | Solubility (Solubility in water): 3000 µg/mL

COc1ccc(/C=C/c2cc(OC)c(OC)c(OC)c2)cc1O [Compound 4a, (E)-combretastatin A-4]
GI50 Pharynx FADU (FADU; FADU, 48 hours): 0.040 µg/mL (≈ 0.126 µM) | GI50 Thyroid SW1736 (SW1736; SW1736, 48 hours): 0.080 µg/mL (≈ 0.253 µM) | Minimum inhibitory amount per disk (Micrococcus luteus): 25–50 μg/disk | GI50 Lung-NSC NCI-H460 (NCI-H460; NCI-H460, 48 hours): 0.038 µg/mL (≈ 0.12 µM) | ED50 P-388 [2, 5]: 0.280 µg/mL (≈ 0.885 µM) | GI50 Neuroblast SK-N-SH (SK-N-SH; SK-N-SH, 48 hours): 0.029 µg/mL (≈ 0.0917 µM) | GI50 Pancreas BXPC-3 (BXPC-3; BXPC-3, 48 hours): 3.9 µg/mL (≈ 12.3 µM) | GI50 Prostate DU-145 (DU-145; DU-145, 48 hours): 0.037 µg/mL (≈ 0.117 µM)

CN(C)C1C(=O)C(C(N)=O)=C(O)C2(O)C(=O)C3=C(O)c4c(O)cccc4C(C)(O)C3CC12.COc1ccc(C=Cc2cc(OC)c(OC)c(OC)c2)cc1OP(=O)(O)O (stereo not shown) [Compound 5r, Tetracycline combretastatin A-4 3-O-phosphate]
Minimum inhibitory concentration (Escherichia coli): 3.12–6.25 μg/disk | Minimum inhibitory concentration (Staphylococcus aureus): 0.195–0.39 μg/disk | Minimum inhibitory amount per disk (Neisseria gonorrhoeae; [4]): 3.12–6.25 μg/disk | GI50 Pharynx FADU (FADU; FADU, 48 hours): 0.0055 µg/mL | Minimum inhibitory concentration (Streptococcus pneumoniae): 0.195–0.39 μg/disk | GI50 Thyroid SW1736 (SW1736; SW1736, 48 hours): 0.012 µg/mL | antimicrobial growth inhibition (in words) [1]: inhibited the growth of all Gram-negative and Gram-positive bacteria tested | Minimum inhibitory amount per disk (Micrococcus luteus): 0.78–1.56 μg/disk | GI50 Lung-NSC NCI-H460 (NCI-H460; NCI-H460, 48 hours): 0.0046 µg/mL | ED50 P-388 [2, 5]: 0.037 µg/mL | GI50 Neuroblast SK-N-SH (SK-N-SH; SK-N-SH, 48 hours): 0.0032 µg/mL | GI50 Pancreas BXPC-3 (BXPC-3; BXPC-3, 48 hours): 0.57 µg/mL | GI50 Prostate DU-145 (DU-145; DU-145, 48 hours): 0.058 µg/mL | Minimum inhibitory concentration [3]: 6.25–12.5 μg/disk | Minimum inhibitory concentration (Enterobacter cloacae): 3.12–6.25 μg/disk | Minimum inhibitory concentration (Enterococcus faecalis): 25–50 μg/disk

Combretastatin A-4 [Compound 1a, reference compound]
Minimum inhibitory amount per disk (Neisseria gonorrhoeae): 25–50 μg/disk | growth inhibition of Neisseria gonorrhoeae (in words) (Neisseria gonorrhoeae): inhibited growth | GI50 Pharynx FADU (FADU): 0.00065 µg/mL | GI50 Thyroid SW1736 (SW1736): 0.00071 µg/mL | GI50 (full-panel NCl screen): 6.61 nM | GI50 Lung-NSC NCI-H460 (NCI-H460): 0.00056 µg/mL | ED50 P-388 [2]: 0.00266 µg/mL | GI50 Melanoma SK-Mel-3 (SK-Mel-3): 0.0002 µg/mL | GI50 Neuroblast SK-N-SH (SK-N-SH): 0.00026 µg/mL | GI50 Pancreas BXPC-3 (BXPC-3): >0.1 µg/mL | GI50 Prostate DU-145 (DU-145): 0.00076 µg/mL | inhibition at the colchicine binding site of tubulin (tubulin): 97%
